Laboratory results reported in ChEMBL document CHEMBL1201862, “PubChem BioAssay data set” (2004).
Calls of active or inactive are those of the source.

Legend:
[1] = target: Alkaline phosphatase, placental type (Homo sapiens, UniProt P05187); assay: human placental alkaline phosphatase inhibition – biochemical, luminescence, confirmation (AID 1512); format: functional
[2] = Counterscreen for IDE inhibitors: Luminescence-based cell-based high throughput dose response assay to identify compounds that are cytotoxic to HEK cells. [Related pubchem assays: 434962 (Primary screen (IDE inhibitors in singlicate)), 449730 (Counterscreen (Cytotoxicity in triplicate)), 435028 (Confirmation (IDE inhibitors in triplicate)) …; format: functional; conditions: HEK293
[3] = target: T1, Insulin-degrading enzyme (Homo sapiens, UniProt P14735); assay: Dose Response: Fluorescence polarization-based cell-based high throughput dose response assay for inhibitors of insulin-degrading enzyme (IDE). [Related pubchem assays: 434962 (Primary screen (IDE inhibitors in singlicate)), 449730 (Counterscreen (Cytotoxicity in triplicate)), 435028 (Confirmation (IDE inhibitors in triplicate)), 434984 (Summary …; format: functional
T1 sequence (P14735 whole entry): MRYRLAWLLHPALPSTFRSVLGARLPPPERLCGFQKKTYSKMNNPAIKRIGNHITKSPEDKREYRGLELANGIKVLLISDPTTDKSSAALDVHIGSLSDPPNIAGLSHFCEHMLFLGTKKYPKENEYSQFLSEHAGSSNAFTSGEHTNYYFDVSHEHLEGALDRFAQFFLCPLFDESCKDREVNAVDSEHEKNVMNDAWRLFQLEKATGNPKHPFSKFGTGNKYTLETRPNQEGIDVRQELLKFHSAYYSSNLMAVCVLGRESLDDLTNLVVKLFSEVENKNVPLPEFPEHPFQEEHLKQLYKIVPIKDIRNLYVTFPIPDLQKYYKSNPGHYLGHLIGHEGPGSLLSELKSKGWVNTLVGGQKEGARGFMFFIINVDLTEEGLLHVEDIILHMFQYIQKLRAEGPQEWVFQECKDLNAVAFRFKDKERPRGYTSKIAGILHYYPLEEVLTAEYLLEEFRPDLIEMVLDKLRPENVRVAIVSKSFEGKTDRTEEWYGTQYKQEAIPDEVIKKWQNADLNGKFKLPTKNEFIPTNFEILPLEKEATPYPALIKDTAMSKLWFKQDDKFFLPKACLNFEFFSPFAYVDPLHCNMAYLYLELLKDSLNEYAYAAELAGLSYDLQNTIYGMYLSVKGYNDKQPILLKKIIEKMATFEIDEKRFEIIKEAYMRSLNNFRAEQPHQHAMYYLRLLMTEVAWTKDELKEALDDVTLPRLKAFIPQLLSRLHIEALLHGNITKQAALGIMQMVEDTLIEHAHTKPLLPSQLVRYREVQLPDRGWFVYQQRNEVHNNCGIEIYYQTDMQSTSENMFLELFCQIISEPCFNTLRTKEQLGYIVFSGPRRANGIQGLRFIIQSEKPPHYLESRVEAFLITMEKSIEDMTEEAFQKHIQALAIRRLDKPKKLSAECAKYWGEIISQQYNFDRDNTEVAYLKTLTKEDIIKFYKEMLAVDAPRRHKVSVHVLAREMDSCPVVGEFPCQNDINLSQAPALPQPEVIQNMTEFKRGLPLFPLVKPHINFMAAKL

[4] = target: T2, Acyl-homoserine lactone acylase PvdQ (Pseudomonas aeruginosa (strain LESB58), UniProt Q9I194); assay: PvdQ acylase enzyme activity blockers – biochemical, fluorescence, plate reader and imaging, cherry-picks, dose response (AID 493231)
T2 sequence (Q9I194 whole entry): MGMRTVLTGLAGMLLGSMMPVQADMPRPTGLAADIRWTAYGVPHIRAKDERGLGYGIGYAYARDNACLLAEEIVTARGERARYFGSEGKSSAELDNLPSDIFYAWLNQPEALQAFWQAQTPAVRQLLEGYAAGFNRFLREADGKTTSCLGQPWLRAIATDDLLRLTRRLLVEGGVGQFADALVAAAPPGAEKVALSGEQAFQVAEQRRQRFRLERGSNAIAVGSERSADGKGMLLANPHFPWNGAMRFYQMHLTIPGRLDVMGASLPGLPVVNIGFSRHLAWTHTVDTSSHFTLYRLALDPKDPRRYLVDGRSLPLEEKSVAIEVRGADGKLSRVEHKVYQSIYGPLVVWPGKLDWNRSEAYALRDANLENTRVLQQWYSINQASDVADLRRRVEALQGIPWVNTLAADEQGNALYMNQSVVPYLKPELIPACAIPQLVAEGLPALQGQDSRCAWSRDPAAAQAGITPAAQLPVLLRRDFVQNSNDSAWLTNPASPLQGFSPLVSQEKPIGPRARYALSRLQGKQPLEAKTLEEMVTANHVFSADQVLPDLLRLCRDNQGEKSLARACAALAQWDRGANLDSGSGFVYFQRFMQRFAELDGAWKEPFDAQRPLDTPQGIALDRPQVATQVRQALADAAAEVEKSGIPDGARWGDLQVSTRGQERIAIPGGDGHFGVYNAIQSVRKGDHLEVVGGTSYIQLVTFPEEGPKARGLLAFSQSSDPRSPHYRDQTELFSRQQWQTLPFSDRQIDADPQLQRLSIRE

[5] = target: T3, Protein skinhead-1 (Caenorhabditis elegans, UniProt P34707); format: functional
T3 sequence (P34707 whole entry): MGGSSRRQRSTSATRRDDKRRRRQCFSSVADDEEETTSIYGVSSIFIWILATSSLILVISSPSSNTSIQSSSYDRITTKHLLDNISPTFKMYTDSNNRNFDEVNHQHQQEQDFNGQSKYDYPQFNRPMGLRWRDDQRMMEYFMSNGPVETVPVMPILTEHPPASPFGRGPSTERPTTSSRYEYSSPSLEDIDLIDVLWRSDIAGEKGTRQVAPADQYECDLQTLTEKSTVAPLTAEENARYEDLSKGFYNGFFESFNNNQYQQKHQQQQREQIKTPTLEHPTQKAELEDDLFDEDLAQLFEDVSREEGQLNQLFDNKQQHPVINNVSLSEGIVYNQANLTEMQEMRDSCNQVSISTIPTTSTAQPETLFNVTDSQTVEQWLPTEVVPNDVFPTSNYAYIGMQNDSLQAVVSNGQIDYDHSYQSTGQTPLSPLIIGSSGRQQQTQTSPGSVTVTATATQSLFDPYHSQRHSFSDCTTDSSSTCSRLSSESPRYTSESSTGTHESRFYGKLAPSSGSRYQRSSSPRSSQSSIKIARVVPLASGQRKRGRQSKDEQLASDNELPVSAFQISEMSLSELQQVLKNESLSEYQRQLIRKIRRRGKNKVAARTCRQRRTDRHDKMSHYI

[6] = viability of PTEN-deleted HCT116 cells – cell-based, HCT116 PTEN knockout, dose response (AID 1047); format: functional;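 also: HCT116 colon tumor cells with PTEN knocked out; cells exposed to compound for 60 hours before readout; potency for loss of cell viability measured by luminescence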
[7] = DRD fibroblast viability loss – cell-based, non-viral oncogenic, luminescence, dose response (AID 1934); format: functional; conditions: Homo sapiens
[8] = viability of HCT116 lacking mutant beta-catenin – cell-based, human colon tumor, dose response (AID 1045); format: functional;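 also: HCT116 colon tumor cells with beta catenin knocked out; cells exposed to compound for 60 hours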
[9] = system: BJ; assay: cells; format: functional, cell-based; conditions: Homo sapiens
[10] = system: BJ; assay: BJ-TERT fibroblast viability loss – cell-based, RAS-independent, luminescence, dose response (AID 1933); format: functional; conditions: Homo sapiens
[11] = target: FAD-linked sulfhydryl oxidase ALR (Homo sapiens, UniProt P55789); assay: ALR-catalysed DTT oxidation blockers – biochemical, H2O2 detection, luminescence, cherry-pick, dose response (AID 493248)
[12] = system: BJ; assay: BJ-TERT-LT-ST fibroblast viability loss – cell-based, RAS-independent, luminescence, dose response (AID 1935); format: functional; conditions: Homo sapiens;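 also: BJ fibroblasts immortalized with TERT plus LT and ST oncogenes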
[13] = target: Neurotensin receptor type 1 (Homo sapiens, UniProt P30989); format: functional;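 also: Image-based confirmatory dose-response assay measuring agonist activity at NTR1; NTR1-expressing U2OS osteosarcoma cells imaged for beta-arrestin GFP spot formation; agonist potency where compounds increase beta-arrestin recruitment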
Neurotensin receptor type 1, sequence (P30989 whole entry): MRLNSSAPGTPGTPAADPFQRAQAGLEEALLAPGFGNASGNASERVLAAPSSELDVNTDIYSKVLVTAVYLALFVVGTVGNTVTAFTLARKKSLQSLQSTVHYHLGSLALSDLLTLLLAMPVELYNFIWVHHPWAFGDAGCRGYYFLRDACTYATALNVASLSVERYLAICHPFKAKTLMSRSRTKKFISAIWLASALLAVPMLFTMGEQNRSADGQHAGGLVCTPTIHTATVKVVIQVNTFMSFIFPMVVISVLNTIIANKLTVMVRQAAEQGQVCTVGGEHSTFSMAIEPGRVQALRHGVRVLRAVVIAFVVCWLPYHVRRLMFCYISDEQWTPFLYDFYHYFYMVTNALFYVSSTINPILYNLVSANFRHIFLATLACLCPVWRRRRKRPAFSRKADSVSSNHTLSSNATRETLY

Alkaline phosphatase, placental type, sequence (P05187 whole entry): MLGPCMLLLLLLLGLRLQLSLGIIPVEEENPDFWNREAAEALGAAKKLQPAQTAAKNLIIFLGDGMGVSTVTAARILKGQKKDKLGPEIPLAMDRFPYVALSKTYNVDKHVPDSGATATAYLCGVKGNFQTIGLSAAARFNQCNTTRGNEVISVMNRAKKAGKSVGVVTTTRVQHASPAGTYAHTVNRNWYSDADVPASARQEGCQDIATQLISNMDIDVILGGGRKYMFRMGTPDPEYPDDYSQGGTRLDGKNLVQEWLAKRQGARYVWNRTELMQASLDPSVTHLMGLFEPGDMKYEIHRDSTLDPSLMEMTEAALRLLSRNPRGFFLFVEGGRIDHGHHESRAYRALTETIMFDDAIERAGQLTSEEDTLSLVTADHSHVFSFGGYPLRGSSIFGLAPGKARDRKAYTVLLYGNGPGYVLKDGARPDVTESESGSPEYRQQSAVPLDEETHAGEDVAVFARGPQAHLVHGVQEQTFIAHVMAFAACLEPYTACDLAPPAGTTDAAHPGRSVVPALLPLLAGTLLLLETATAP
FAD-linked sulfhydryl oxidase ALR, sequence (P55789 whole entry): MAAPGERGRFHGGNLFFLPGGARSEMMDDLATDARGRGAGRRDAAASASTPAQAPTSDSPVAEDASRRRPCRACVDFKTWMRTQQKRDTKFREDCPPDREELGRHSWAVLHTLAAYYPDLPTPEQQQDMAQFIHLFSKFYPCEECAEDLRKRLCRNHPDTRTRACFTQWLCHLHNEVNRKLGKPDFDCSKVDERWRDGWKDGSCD

With COc1cccc(C=NNc2nn3cnnc3c3ccccc23)c1O the IC50 [1] was > 100 µM (inactive).

In the case of O=C1NC(=O)N(c2ccccc2)C(=O)/C1=C\C=C\Nc1ccccc1, the IC50 [2] is reported as > 55.7 µM (not active) and the IC50 [3] is reported as > 55.9 µM (not active).

In the case of C#CCSc1ncc(-c2ccccc2)cn1, the AC50 [4] is reported as 6.14 µM (active) and the IC50 [5] is reported as 15.3 µM (active).

With Cn1nc(-c2ccc(Cl)cc2)c2cc(C(=O)NCCCN3CCCC3)sc21 the EC50 [6] was 4.65 µM (active), the EC50 [7] was 12.4 µM (active) and the EC50 [8] was 4.01 µM (active). The EC50 [9] was 23.1 µM (active), the EC50 [10] was 9.41 µM (active) and the AC50 [11] was 6.39 µM (active). For the same compound, the EC50 [12] was > 150 µM (inconclusive).

In the case of COc1cccc(OC)c1C(=O)Oc1ccc2c(c1)O/C(=C\c1ccncc1)C2=O, the EC50 [13] is reported as 15.9 µM (active).
